Results: PMC7490411 (Signal Transduction and Targeted Therapy, 2020)

Tests used:
[1] = tested on: JAK3(JH1domain-catalytic); experiment: KINOMEscan; type: binding; conditions: 1000 nM
ULK1 = experiment: KINOMEscan; type: binding; conditions: 1000 nM
MAP3K4 = experiment: KINOMEscan; type: binding; conditions: 1000 nM
EGFR(L861Q) = experiment: KINOMEscan; type: binding; conditions: 1000 nM
CHEK1 = experiment: KINOMEscan; type: binding; conditions: 1000 nM
IRAK3 = experiment: KINOMEscan; type: binding; conditions: 1000 nM
MARK1 = experiment: KINOMEscan; type: binding; conditions: 1000 nM
PLK3 = experiment: KINOMEscan; type: binding; conditions: 1000 nM
TEC = experiment: KINOMEscan; type: binding; conditions: 1000 nM
CDK3 = experiment: KINOMEscan; type: binding; conditions: 1000 nM
ULK2 = experiment: KINOMEscan; type: binding; conditions: 1000 nM
p38-beta = experiment: KINOMEscan; type: binding; conditions: 1000 nM
PIK3CA(H1047Y) = experiment: KINOMEscan; type: binding; conditions: 1000 nM
BRK = experiment: KINOMEscan; type: binding; conditions: 1000 nM
PIK3CA = experiment: KINOMEscan; type: binding; conditions: 1000 nM
MST1R = experiment: KINOMEscan; type: binding; conditions: 1000 nM
LIMK2 = experiment: KINOMEscan; type: binding; conditions: 1000 nM
[2] = tested on: panel of B-cell lymphoma cell lines; experiment: anti-proliferative CellTiter-Glo assay, whole panel; type: cell-based; conditions: all cell lines of the B-cell lymphoma panel
Description: Cell viability was measured using the CellTiter–Glo assay (Promega, USA) according to the manufacturer’s instructions, and […] was measured in a Bio-red Microplate reader (Bio-Red, USA).

[3] = tested on: RSK2(Kin.Dom.2-C-terminal); experiment: KINOMEscan; type: binding; conditions: 1000 nM
ACVRL1 = experiment: KINOMEscan; type: binding; conditions: 1000 nM
NDR2 = experiment: KINOMEscan; type: binding; conditions: 1000 nM
EGFR = molecular target: T1, EGFR (Homo sapiens, UniProt P00533); experiment: KINOMEscan; type: binding; conditions: 1000 nM
T1 construct: purchased Invitrogen (Carlsbad, CA, USA)

PAK2 = experiment: KINOMEscan; type: binding; conditions: 1000 nM
MET(M1250T) = experiment: KINOMEscan; type: binding; conditions: 1000 nM
[4] = tested on: ABL1(F317I)-nonphosphorylated; experiment: KINOMEscan; type: binding; conditions: 1000 nM
LATS2 = experiment: KINOMEscan; type: binding; conditions: 1000 nM
PIM1 = experiment: KINOMEscan; type: binding; conditions: 1000 nM
CDKL1 = experiment: KINOMEscan; type: binding; conditions: 1000 nM
AURKA = experiment: KINOMEscan; type: binding; conditions: 1000 nM
YANK1 = experiment: KINOMEscan; type: binding; conditions: 1000 nM
DYRK2 = experiment: KINOMEscan; type: binding; conditions: 1000 nM
[5] = tested on: NK cells co-seeded with SK-OV-3 cells; experiment: IFN-γ secretion ELISA, NK cells co-cultured with SK-OV-3 cells in presence of Herceptin; type: cell-based, human; conditions: SK-OV-3 co-culture; 0.1 to 3 μM
Description: Peripheral blood mononuclear cells (PBMC) were separated from the blood of healthy donors by Ficoll density gradient centrifugation (Histopaque-1077, Sigma-Aldrich). Cells were enriched using a MACS® human NK cell negative-selection isolation kit (Miltenyi Biotec, Germany) according to the manufacturer’s instructions. Purified NK cells were cultured with 1000U/ml IL2 for 48h. […] The concentrations of interferon (IFN)-γ in cell culture supernatants obtained from three independent experiments were detected using commercial ELISA kits (absin, #abs510007), according to the manufacturer’s instructions. The human IFN-γ kit sensitivity was 7.8 pg/ml.

CSF1R-autoinhibited = experiment: KINOMEscan; type: binding; conditions: 1000 nM
CDK2 = experiment: KINOMEscan; type: binding; conditions: 1000 nM
PRKCI = experiment: KINOMEscan; type: binding; conditions: 1000 nM
FGFR3 = experiment: KINOMEscan; type: binding; conditions: 1000 nM
ACVR2B = experiment: KINOMEscan; type: binding; conditions: 1000 nM
[6] = tested on: REC-1 cells bone marrow engraftment; experiment: REC-1 cells bone marrow engrafted mouse model; type: in vivo; conditions: REC-1 bone marrow engraftment
Description: Five-week old female NOD-SCID mice were purchased from the Beijing Vital River Laboratory Animal Technology Co., Ltd (Beijing, China). All animals were housed in a specific pathogen free facility and used according to the animal care regulations of Hefei Institutes of Physical Science, Chinese Academy of Sciences. NOD-SCID mice were induced by intraperitoneal injection of cyclophosphamide (CTX) 50 mg/kg daily for two days. 8 million REC-1 cells in 0.3 mL RPMI1640 medium were injected by intravenous after 24 h. […] Mice were monitored daily and were euthanized when moribund or at early signs of hind limb paralysis.

PIK3CD = experiment: KINOMEscan; type: binding; conditions: 1000 nM
CLK1 = experiment: KINOMEscan; type: binding; conditions: 1000 nM
PKAC-alpha = experiment: KINOMEscan; type: binding; conditions: 1000 nM
PIP5K1A = experiment: KINOMEscan; type: binding; conditions: 1000 nM
CAMKK1 = experiment: KINOMEscan; type: binding; conditions: 1000 nM
EPHA5 = experiment: KINOMEscan; type: binding; conditions: 1000 nM
ALK(C1156Y) = experiment: KINOMEscan; type: binding; conditions: 1000 nM
KIT(D816H) = experiment: KINOMEscan; type: binding; conditions: 1000 nM
HIPK4 = experiment: KINOMEscan; type: binding; conditions: 1000 nM
NEK7 = experiment: KINOMEscan; type: binding; conditions: 1000 nM
SGK3 = experiment: KINOMEscan; type: binding; conditions: 1000 nM
BRSK2 = experiment: KINOMEscan; type: binding; conditions: 1000 nM
PRKR = experiment: KINOMEscan; type: binding; conditions: 1000 nM

T1 sequence (P00533 25-1210): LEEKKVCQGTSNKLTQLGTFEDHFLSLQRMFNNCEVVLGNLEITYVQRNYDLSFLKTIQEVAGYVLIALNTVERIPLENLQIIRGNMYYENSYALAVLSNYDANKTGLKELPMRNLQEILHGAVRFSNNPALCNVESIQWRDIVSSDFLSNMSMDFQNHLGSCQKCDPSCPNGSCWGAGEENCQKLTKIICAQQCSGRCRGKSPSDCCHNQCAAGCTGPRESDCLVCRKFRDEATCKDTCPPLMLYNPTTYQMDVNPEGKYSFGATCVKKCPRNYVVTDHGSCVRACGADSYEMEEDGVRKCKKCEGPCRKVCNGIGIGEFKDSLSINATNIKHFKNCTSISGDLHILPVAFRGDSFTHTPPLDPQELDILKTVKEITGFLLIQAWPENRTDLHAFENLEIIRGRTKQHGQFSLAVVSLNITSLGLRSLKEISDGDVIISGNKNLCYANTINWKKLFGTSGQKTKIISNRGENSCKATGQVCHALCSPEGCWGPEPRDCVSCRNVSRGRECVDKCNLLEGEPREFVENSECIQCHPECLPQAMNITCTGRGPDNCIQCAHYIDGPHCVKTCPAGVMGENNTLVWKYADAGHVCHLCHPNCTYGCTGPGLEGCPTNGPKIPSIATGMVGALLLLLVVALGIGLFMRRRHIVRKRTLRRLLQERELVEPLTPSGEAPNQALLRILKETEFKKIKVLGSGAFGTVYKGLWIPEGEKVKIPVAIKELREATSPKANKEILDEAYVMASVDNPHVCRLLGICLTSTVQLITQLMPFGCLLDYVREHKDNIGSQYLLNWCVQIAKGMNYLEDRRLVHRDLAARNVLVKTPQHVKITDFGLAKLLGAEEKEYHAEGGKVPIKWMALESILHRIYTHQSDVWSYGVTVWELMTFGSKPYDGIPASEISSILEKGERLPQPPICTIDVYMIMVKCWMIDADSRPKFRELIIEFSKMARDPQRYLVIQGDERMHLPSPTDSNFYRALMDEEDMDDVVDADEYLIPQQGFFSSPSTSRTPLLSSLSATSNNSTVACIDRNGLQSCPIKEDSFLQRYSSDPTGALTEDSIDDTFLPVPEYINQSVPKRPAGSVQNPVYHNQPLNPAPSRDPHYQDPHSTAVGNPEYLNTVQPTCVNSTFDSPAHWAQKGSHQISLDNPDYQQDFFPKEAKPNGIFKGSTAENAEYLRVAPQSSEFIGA

Compound: C=CC(=O)Nc1cc(Nc2cc(-c3cccc(NC(=O)c4cc5c(s4)CCCC5)c3C)cn(C)c2=O)ccc1N1CCN(CC)CC1 [CHMFL-BTK-85]
- Percent Control [1]: 80%
- Percent Control (ULK1): 100%
- Percent Control (MAP3K4): 92%
- Percent Control (EGFR(L861Q)): 94%
- Percent Control (CHEK1): 79%
- Percent Control (IRAK3): 100%
- Percent Control (MARK1): 100%
- Percent Control (PLK3): 99%
- Percent Control (TEC): 100%
- Percent Control (CDK3): 86%
- Percent Control (ULK2): 100%
- Percent Control (p38-beta): 89%
- Percent Control (PIK3CA(H1047Y)): 83%
- Percent Control (BRK): 21%
- Percent Control (PIK3CA): 82%
- Percent Control (MST1R): 98%
- Percent Control (LIMK2): 100%
- GI50s [2]: < 2000 nM
- Percent Control [3]: 99%
- Percent Control (ACVRL1): 100%
- Percent Control (NDR2): 34%
- kinase binding remaining (percent of control) at 1 µM (EGFR): 58%
- Percent Control (PAK2): 100%
- Percent Control (MET(M1250T)): 95%
- Percent Control [4]: 99%
- Percent Control (LATS2): 100%
- Percent Control (PIM1): 95%
- Percent Control (CDKL1): 77%
- Percent Control (AURKA): 92%
- Percent Control (YANK1): 100%
- Percent Control (DYRK2): 98%
- inhibition of Herceptin-induced IFN-γ secretion in NK cells [5]: no apparent inhibition
- Percent Control (CSF1R-autoinhibited): 100%
- Percent Control (CDK2): 85%
- Percent Control (PRKCI): 100%
- Percent Control (FGFR3): 82%
- Percent Control (ACVR2B): 99%
- median survival time ([6]; 50 mg/kg/day p.o.): 42 days
- median survival time ([6]; 150 mg/kg/day p.o.): 63 days
- Percent Control (PIK3CD): 100%
- Percent Control (CLK1): 88%
- Percent Control (PKAC-alpha): 100%
- Percent Control (PIP5K1A): 96%
- Percent Control (CAMKK1): 75%
- Percent Control (EPHA5): 100%
- Percent Control (ALK(C1156Y)): 100%
- Percent Control (KIT(D816H)): 100%
- Percent Control (HIPK4): 91%
- Percent Control (NEK7): 96%
- Percent Control (SGK3): 100%
- Percent Control (BRSK2): 99%
- Percent Control (PRKR): 49%
